From US11780893B2, “Kv1.3 blockers” (Zealand Pharma A/S, priority 2019, dated 2023)
Bridge positions count the residues as written; N and C are the ends. Square brackets hold non-standard residues; d marks the D form. Peptide text beside a SMILES is read from it. Nle = CCCC[C@H](N)C(=O)O

Target: T1, human Kv1.3 voltage-gated K+ channel (Homo sapiens, UniProt P22001)
T1 construct: host or cells: CHO-DUKX
Test: cell-based
Settings: inhibition of thallium flux, CHO-DUKX cells with human Kv1.3; read-out: IC50

T1 sequence (P22001 whole entry): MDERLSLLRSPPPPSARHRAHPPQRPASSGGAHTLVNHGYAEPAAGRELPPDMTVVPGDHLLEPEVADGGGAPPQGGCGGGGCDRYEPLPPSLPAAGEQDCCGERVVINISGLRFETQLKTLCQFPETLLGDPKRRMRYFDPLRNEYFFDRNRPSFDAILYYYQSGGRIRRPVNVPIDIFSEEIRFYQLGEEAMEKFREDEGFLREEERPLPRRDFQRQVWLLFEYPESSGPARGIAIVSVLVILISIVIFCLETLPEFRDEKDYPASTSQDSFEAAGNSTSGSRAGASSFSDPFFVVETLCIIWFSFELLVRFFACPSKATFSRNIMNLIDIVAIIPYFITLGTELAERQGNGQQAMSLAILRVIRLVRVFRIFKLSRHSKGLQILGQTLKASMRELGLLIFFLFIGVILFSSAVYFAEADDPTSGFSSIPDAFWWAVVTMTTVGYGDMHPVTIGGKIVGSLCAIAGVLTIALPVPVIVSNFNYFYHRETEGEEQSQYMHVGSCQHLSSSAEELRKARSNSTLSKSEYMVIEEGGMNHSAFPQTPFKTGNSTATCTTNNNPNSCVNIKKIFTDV

Row | Compound | IC50 [nM]
1 | CCCC[C@H](NC(=O)[C@H](CC(=O)O)NC(=O)[C@H](CCCC)NC(=O)[C@@H](N)CO)C(=O)N[C@@H](CCCNC(=N)N)C(=O)N[C@H]1CSSC[C@@H]2NC(=O)[C@H](CCCCN)NC(=O)CNC(=O)[C@H](Cc3ccccc3)NC(=O)[C@H]([C@@H](C)CC)NC(=O)[C@H](CO)NC(=O)CNC(=O)[C@H]([C@@H](C)CC)NC(=O)[C@H](C)NC(=O)[C@H](CCCCN)NC(=O)[C@H](CC(C)C)NC(=O)[C@@H]3CSSC[C@@H](C(=O)N[C@@H](Cc4ccc(O)cc4)C(=O)N4CCC[C@H]4C(=O)N[C@@H](CCCNC(=N)N)C(N)=O)NC(=O)[C@H](CCCCN)NC(=O)[C@H](CSSC[C@H](NC(=O)[C@H](CCC(=O)O)NC(=O)[C@H](C(C)C)NC(=O)[C@H](C(C)C)NC(=O)[C@H](C)NC(=O)[C@H](CO)NC1=O)C(=O)N[C@@H](CCCCN)C(=O)N[C@@H](CCC(N)=O)C(=O)N[C@@H](CCCCN)C(=O)N3)NC(=O)[C@H](CCCCN)NC(=O)[C@H](CCCCN)NC(=O)[C@H](CC(N)=O)NC(=O)[C@H](CCSC)NC2=O [Compound 90] (H-S[Nle]D[Nle]RCSAVVECKQKCLKAIGSIFGKCMNKKCKCYPR-NH2; disulfide 6-27, 12-32, 16-34) | 0.19
2 | CC[C@H](C)[C@@H]1NC(=O)[C@H](C)NC(=O)[C@H](CCCCN)NC(=O)[C@H](CC(C)C)NC(=O)[C@@H]2CSSC[C@@H](C(=O)N[C@@H](Cc3ccc(O)cc3)C(=O)N3CCC[C@H]3C(=O)N[C@@H](CCCNC(=N)N)C(=O)O)NC(=O)[C@H](CCCCN)NC(=O)[C@@H]3CSSC[C@H](NC(=O)[C@H](CCC(=O)O)NC(=O)[C@H](C(C)C)NC(=O)[C@H](CO)NC(=O)[C@H](C)NC(=O)[C@H](CO)NC(=O)[C@@H](NC(=O)[C@H](CCCNC(=N)N)NC(=O)[C@H](CCSC)NC(=O)[C@H](CC(=O)O)NC(=O)[C@H](CCSC)NC(=O)[C@H](CC(N)=O)NC(=O)CNC(=O)[C@@H](N)CO)CSSC[C@H](NC(=O)[C@H](CCCCN)NC(=O)CNC(=O)[C@H](Cc4ccccc4)NC(=O)[C@H]([C@@H](C)CC)NC(=O)[C@H](CO)NC(=O)CNC1=O)C(=O)N[C@@H](CCSC)C(=O)N[C@@H](CC(N)=O)C(=O)N[C@@H](CCCCN)C(=O)N[C@@H](CCCCN)C(=O)N3)C(=O)N[C@@H](CCCCN)C(=O)N[C@@H](CCC(N)=O)C(=O)N[C@@H](CCCCN)C(=O)N2 [Compound 13] (H-SGNMDMRCSASVECKQKCLKAIGSIFGKCMNKKCKCYPR-OH; disulfide 8-29, 14-34, 18-36) | 0.26
3 | CCCC[C@H](NC(=O)[C@@H]1CCCN1)C(=O)N[C@@H](CCC(=O)O)C(=O)N[C@@H](CCCC)C(=O)N[C@@H](CCCNC(=N)N)C(=O)N[C@H]1CSSC[C@@H]2NC(=O)[C@H](CCCCN)NC(=O)CNC(=O)[C@H](Cc3ccccc3)NC(=O)[C@H]([C@@H](C)CC)NC(=O)[C@H](CO)NC(=O)CNC(=O)[C@H]([C@@H](C)CC)NC(=O)[C@H](C)NC(=O)[C@H](C)NC(=O)[C@H](CC(C)C)NC(=O)[C@@H]3CSSC[C@@H](C(=O)N[C@@H](Cc4ccc(O)cc4)C(=O)N4CCC[C@H]4C(=O)N[C@@H](CCCNC(=N)N)C(=O)N[C@@H](CCC(=O)O)C(=O)O)NC(=O)[C@H](CCCCN)NC(=O)[C@H](CSSC[C@H](NC(=O)[C@H](CCC(=O)O)NC(=O)[C@H](C(C)C)NC(=O)[C@H](CO)NC(=O)[C@H](C)NC(=O)[C@H](CO)NC1=O)C(=O)N[C@@H](CCCCN)C(=O)N[C@@H](CCC(N)=O)C(=O)N[C@@H](CCCCN)C(=O)N3)NC(=O)[C@H](CCCCN)NC(=O)[C@H](CCCCN)NC(=O)[C@H](CC(N)=O)NC(=O)[C@H](CCCC)NC2=O [Compound 126] (H-P[Nle]E[Nle]RCSASVECKQKCLAAIGSIFGKC[Nle]NKKCKCYPRE-OH; disulfide 6-27, 12-32, 16-34) | 6.49
